From patent US20160355544A1, “NOVEL CHOLESTEROL METABOLITE, 5-CHOLESTEN, 3BETA-25-DIOL, DISULFATE (25HCDS) FOR THERAPY OF METABOLIC DISORDERS, HYPERLIPIDEMIA, DIABETES, FATTY LIVERS DISEASES AND ATHEROSCLEROSIS” (priority 2012, published 2016)
Where “and” joins values, the source holds several entries; their conditions need not be identical. Identical values can stand only once.

Key:
[1] = Liver function assays in sera of HFD-fed mice; format: in vivo, C57BL/6J mice; conditions: data not shown
Procedure: (§1) Animal studies were approved by Institutional Animal Care and Use Committee of McGuire Veterans Affairs Medical Center and were conducted in accordance with the Declaration of Helsinki, the Guide for the Care and Use of Laboratory Animals, and all applicable regulations. To examine the effect of 25HCDS on diet-induced lipid accumulation in sera and liver, 8-week-old female C57BL/6J mice (Charles River, Wilmington, Mass.) were fed high fat diet (HFD) (Harlan Teklad, Madison, Wis.) containing 42% kcal from fat, 43% kcal from carbohydrate, 15% kcal from protein and 0.2% cholesterol for 10 weeks. All mice were housed under identical conditions in an aseptic facility and given free access to water and food. At the end of each period, the mice were intraperitoneally injected with vehicle solution (ethanol/PBS; Vehicle), or 25HCDS (25 mg/kg) once every three days for 6 weeks and fasted for overnight; and blood samples were collected. Serum triglyceride, total cholesterol, high density lipoprotein-cholesterol, glucose, alkaline phosphatase (ALK), alanine aminotransferase (ALT), and aspartate aminotransferase (AST) were measured using standard enzymatic techniques in the clinical laboratory at McGuire Veterans Affairs Medical Center. Lipoprotein profiles in sera were analyzed by HPLC as described below.

PPARγ = PPARγ mRNA regulation by 25HC3S (comparison in discussion); conditions: administration of 25HC3S, compared with 25HCDS
THP-1 macrophages = assay: mRNA levels in THP-1 macrophages by real-time RT-PCR; format: cell-based, Human
Procedure: Human THP-1 monocytes and HepG2 cells were purchased from the American Type Culture Collection (ATCC, Manassas, Va.) and maintained according to the supplier's protocols. THP-1 monocytes were differentiated to macrophages by adding 100 nM of phorbol 12-myristate 13-acetate (PMA). When cells reached ˜90% confluence, 25HCDS in ethanol (the final concentration of ethanol in media was 0.1%) was added. The cells were harvested at the indicated times for protein, mRNA, and lipid analysis.
(§2) Total RNA was isolated with SV Total RNA Isolation Kit (Promega, Madison, Wis.), which included DNase treatment. Total RNA, 2 μg, was used for the first-strand cDNA synthesis as recommended by the manufacturer (Invitrogen, Carlsbad, Calif.). Real-time RT-PCR was performed using a suitable dye as indicator on ABI 7500 Fast Real-Time PCR System (Applied Biosystems, Foster City, Calif.). All primer/probe sets for real-time PCR were TaqMan gene expression assays (Applied Biosystems, Foster City, Calif.). Amplifications of β-actin and glyceraldehyde 3-phosphate dehydrogenase (GAPDH) were used as internal controls. Relative messenger RNA (mRNA) expression was quantified with the comparative cycle threshold (Ct) method and was expressed as 2^−ΔΔct. The sequences of suitable primers for amplification are described, for example, in Ren et al., 2007 (1).

[2] = system: Hepatic mRNA Expression involved in inflammatory responses in the Mice Fed a HFD; assay: Relative hepatic mRNA expression of inflammatory response genes in HFD-fed mice (real-time RT-PCR); format: in vivo, C57BL/6J mice
Procedure: as §2, §1

[3] = system: Hepatic mRNA Expression involved in lipid metabolism in the Mice Fed a HFD; assay: Relative hepatic mRNA expression of lipid metabolism genes in HFD-fed mice (real-time RT-PCR); format: in vivo, C57BL/6J mice; conditions: 25HCDS 25 mg/kg i.p. once every three days for 6 weeks, HFD vehicle = 1.0, mean ± SD, n = 7
Procedure: as §2, §1

HFD-fed mice = assay: Quantification of hepatic lipids in mouse NAFLD model (HFD-fed mice); format: in vivo, C57BL/6J mice
Procedure: as §1
Liver tissues were homogenized, and lipids were extracted with a mixture of chloroform and methanol (2:1), and filtered. The extracts, 0.2 ml, were evaporated to dryness and dissolved in 100 μl of isopropanol containing 10% of TRITON™ X-100 (C14H22O(C2H4O)n), a nonionic surfactant) for cholesterol assay (Wako Chemicals USA, Richmond, Va.), the NEFA solution (0.5 g of EDTA-Na2, 2 g of TRITON™ X-100, 0.76 ml of IN NaOH, and 0.5 g of sodium azide/l, pH 6.5) for free fatty acid assay (Wako Chemicals USA, Richmond, Va.), or isopropanol only for triglyceride assay (Fisher Scientific, Pittsburgh, Pa.). All of the assays were performed according to the manufacturer's instructions, respectively. Each lipid concentration was normalized to liver weight.

[4] = Body mass, caloric intake, liver weight and toxicity during long-term treatment of HFD-fed mice; format: in vivo, C57BL/6J mice
Procedure: as §1
To study the effects of long-term treatment of 25HCDS on lipid homeostasis, 8-week-old C57BL/6J female mice were fed a HFD for 10 weeks, and then divided into two groups. One group was treated with 25HCDS and the other with vehicle by peritoneal injection once every three days for six weeks. During the treatment, the mice were fed a HFD, and body mass and caloric intakes were monitored. […] After 6 weeks of injections, the mice were fasted overnight, and sacrificed.

[5] = concentration dependent and time dependent, FIG. 5A
[6] = 25 mg/kg i.p. once every three days for 6 weeks, versus HFD vehicle
[7] = 25HCDS 25 mg/kg i.p. once every three days for 6 weeks, HFD vehicle = 1.0, mean ± SD, n = 7
[8] = HFD-fed mice, 25 mg/kg i.p. once every three days for 6 weeks, versus HFD vehicle, 25 mg/kg
[9] = in vivo studies, 25HCDS administration
[10] = HFD-fed mice during 6 weeks of treatment, versus vehicle, data not shown

With `C[C@H](CCCC(C)(C)O)[C@H]1CC[C@H]2[C@@H]3CC=C4C[C@@H](OS(=O)(=O)O)CC[C@]4(C)[C@H]3CC[C@]12C` [25HC3S, 5-Cholesten-3β, 25-diol 3-sulfate] the “alkaline phosphatase activity in sera” value [1] was “decreasing” and the “PPARγ mRNA” value (PPARγ) was “only slightly increases”.
With `C[C@H](CCCC(C)(C)OS(=O)(=O)O)[C@H]1CC[C@H]2[C@@H]3CC=C4C[C@@H](OS(=O)(=O)O)CC[C@]4(C)[C@H]3CC[C@]12C` [25HCDS, 5-cholesten-3β, 25-diol, disulfate] the “PPARγ mRNA levels” value (THP-1 macrophages; FIG. 5C, 5D) was “linearly increased”, the “expression of SREBP1/2” value (THP-1 macrophages; FIGS. 5A and 5B) was “decreases” and the IκBα expression (THP-1 macrophages; at an early stage and at low concentrations) was “coincidently increased”. For the same compound, the “ACC mRNA levels” value (THP-1 macrophages; [5]) was “decreases”, the “FAS mRNA levels” value (THP-1 macrophages; [5]) was “decreases” and the “HMG-CoA reductase mRNA levels” value (THP-1 macrophages; concentration dependent and time dependent, FIG. 5B) was “decreases”. The “increase of PGC-1α expression in the liver” value [2, 6] was 2 fold, the “suppression of IL1β expression in liver” value [2, 6] was 36% and the “suppression of TNFα expression in liver” value [2, 6] was 50%. For the same compound, the “IL1α relative hepatic mRNA expression” value [2, 7] was 1.02 ± 0.20, the “IL1β relative hepatic mRNA expression” value [2, 7] was 0.64 ± 0.16 and the “IkBα relative hepatic mRNA expression” value [2, 7] was 1.35 ± 0.27. For the same compound, the “PGC-1α relative hepatic mRNA expression” value [2, 7] was 2.11 ± 0.82, the “PPARα (Peroxisome proliferator-activated receptor gamma) relative hepatic mRNA expression” value [2, 7] was 1.27 ± 0.52 and the “TNFv (Tumor necrosis factor a) relative hepatic mRNA expression” value [2, 7] was 0.50 ± 0.21. The “ACC1 relative hepatic mRNA expression” value [3] was 0.86 ± 0.18, the “CD36 relative hepatic mRNA expression” value [3] was 0.69 ± 0.29 and the “FAS relative hepatic mRNA expression” value [3] was 0.68 ± 0.17. The “GPAM relative hepatic mRNA expression” value [3] was 0.74 ± 0.18, the “HMGR relative hepatic mRNA expression” value [3] was 0.84 ± 0.07 and the “LDLR relative hepatic mRNA expression” value [3] was 0.62 ± 0.08. The “MTTP relative hepatic mRNA expression” value [3] was 0.94 ± 0.17, the “PLTP relative hepatic mRNA expression” value [3] was 0.68 ± 0.21 and the “SREBP-1c relative hepatic mRNA expression” value [3] was 0.64 ± 0.14. For the same compound, the “SREBP-2 relative hepatic mRNA expression” value [3] was 1.12 ± 0.25, the “decrease of total cholesterol in liver tissue” value (HFD-fed mice; HFD-fed mice, 25 mg/kg i.p. once every three days for 6 weeks, versus HFD vehicle) was 30% and the “decrease of free fatty acids in liver tissue” value (HFD-fed mice; [8]) was 20% and 25%. The “decrease of triglycerides in liver tissue” value (HFD-fed mice; [8]) was 18% and 20%, the “decrease of hepatic neutral lipids” value (HFD-fed mice; [9]) was 20-35% and the body mass [4, 10] was “No significant difference”. For the same compound, the caloric intakes [4, 10] was “No significant difference”, the liver weights ([4]; after 6 weeks of injections, data not shown) was “did not show significant differences” and the toxicity [4, 9] was “without exhibiting toxicity”.
